11 compounds from patent publication US20240308976A1, “COMPOUNDS THAT MEDIATE PROTEIN DEGRADATION AND USES THEREOF” (Monte Rosa Therapeutics, Inc., priority 2021, published 2024) can be followed below.

For experiment [1], the target named is CRBN-DDB1 (Homo sapiens, UniProt Q96SW2). Put plainly: Compound binding to CRBN by HTRF assay. Particulars: CRBN-DDB1 2.5 nM, Cy5-Thalidomide 100 nM, 30 min at ambient temperature; read-out: HTRF Class (Cereblon binding, HTRF IC50). Put shortly:
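Cy5-thalidomide (100 nM) displacement from His-tagged CRBN-DDB1 (2.5 nM) read by terbium-cryptate HTRF (665/620 nm), in 20 mM HEPES, 20 mM NaCl, 0.2 mM TCEP, 0.2 mM EDTA, 0.005% Tween20. Compounds tested as 10-point 1:3 series, 30 min at ambient temperature. Signal normalised to DMSO and lenalidomide controls; IC50 fitted, Ki by Cheng-Prusoff.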

In experiment [2] the target is T1, GSPT1 (Homo sapiens, UniProt P15170+Q96SW2).
T1 construct: CAL-51 cells were purchased from DSMZ (cat. Number ACC302); host or cells: CAL-51
T1 sequence (P15170 whole entry): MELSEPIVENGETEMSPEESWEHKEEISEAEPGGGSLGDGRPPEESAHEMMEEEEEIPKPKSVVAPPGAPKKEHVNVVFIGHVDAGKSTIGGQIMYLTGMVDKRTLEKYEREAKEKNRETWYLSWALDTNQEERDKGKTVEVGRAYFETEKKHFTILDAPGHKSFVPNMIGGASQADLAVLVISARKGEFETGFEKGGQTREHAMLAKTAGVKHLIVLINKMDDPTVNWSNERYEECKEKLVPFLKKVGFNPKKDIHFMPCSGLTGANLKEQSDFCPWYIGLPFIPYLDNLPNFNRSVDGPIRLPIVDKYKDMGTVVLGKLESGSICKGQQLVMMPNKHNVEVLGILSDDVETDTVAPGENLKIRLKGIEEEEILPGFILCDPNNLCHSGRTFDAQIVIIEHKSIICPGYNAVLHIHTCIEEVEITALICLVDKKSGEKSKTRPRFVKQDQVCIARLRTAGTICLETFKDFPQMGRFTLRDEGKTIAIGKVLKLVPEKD
T1 sequence (Q96SW2 whole entry): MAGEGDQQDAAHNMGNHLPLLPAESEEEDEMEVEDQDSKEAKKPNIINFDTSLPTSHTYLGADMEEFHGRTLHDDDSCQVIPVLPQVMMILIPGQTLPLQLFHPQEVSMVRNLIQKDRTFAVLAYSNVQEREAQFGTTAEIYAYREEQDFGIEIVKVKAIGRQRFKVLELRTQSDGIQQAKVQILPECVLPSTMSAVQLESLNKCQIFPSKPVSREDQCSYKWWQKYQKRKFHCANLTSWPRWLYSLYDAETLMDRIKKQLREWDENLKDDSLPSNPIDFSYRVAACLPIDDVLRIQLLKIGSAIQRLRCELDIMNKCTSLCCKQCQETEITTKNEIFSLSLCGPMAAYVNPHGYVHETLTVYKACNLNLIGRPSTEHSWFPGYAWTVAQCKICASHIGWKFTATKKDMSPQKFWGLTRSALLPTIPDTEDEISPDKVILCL
T1 sequence (Q16531 2-1140 partner limits assumed): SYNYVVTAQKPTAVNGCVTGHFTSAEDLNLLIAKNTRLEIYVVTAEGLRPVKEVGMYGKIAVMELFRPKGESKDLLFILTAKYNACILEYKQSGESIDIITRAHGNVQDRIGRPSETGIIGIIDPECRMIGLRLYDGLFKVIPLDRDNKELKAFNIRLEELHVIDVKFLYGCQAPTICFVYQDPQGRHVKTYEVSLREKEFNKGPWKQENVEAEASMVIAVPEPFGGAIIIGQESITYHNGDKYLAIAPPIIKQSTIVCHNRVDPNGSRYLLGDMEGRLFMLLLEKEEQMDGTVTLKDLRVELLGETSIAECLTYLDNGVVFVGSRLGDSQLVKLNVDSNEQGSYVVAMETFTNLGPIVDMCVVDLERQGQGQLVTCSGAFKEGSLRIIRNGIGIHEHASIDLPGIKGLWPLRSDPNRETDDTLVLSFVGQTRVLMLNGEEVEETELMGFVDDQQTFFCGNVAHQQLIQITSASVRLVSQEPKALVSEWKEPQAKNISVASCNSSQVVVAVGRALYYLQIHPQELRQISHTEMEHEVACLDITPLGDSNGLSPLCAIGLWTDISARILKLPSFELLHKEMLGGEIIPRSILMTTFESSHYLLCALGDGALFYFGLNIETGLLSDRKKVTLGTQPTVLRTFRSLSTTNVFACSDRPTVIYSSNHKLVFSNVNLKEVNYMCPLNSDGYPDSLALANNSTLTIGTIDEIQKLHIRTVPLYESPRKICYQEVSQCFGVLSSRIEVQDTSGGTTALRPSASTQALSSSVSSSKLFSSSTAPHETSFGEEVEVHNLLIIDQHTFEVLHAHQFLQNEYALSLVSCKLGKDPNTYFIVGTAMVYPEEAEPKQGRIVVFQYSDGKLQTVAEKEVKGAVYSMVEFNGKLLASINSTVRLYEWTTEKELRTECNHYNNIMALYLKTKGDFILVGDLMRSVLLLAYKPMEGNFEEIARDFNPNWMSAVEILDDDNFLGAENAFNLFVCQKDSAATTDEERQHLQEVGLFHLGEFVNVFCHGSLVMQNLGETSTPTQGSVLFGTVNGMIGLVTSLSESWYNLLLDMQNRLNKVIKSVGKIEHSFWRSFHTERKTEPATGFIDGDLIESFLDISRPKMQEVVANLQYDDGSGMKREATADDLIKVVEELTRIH
Put plainly: Immunofluorescence assay for activity to degrade GSPT1 in CAL-51 cells. Format: cell-based. Particulars: 6 h treatment, read-out: IF Class (GSPT1 degradation, DC50). Put shortly:
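CAL-51 cells treated 6 h with compound (30 μM to 0.1 nM), fixed, immunostained for GSPT1 with DAPI and phalloidin counterstains, imaged by high-content microscopy. Mean per-cell GSPT1 intensity normalized to controls; DC50 by non-linear regression.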

Chain of CRBN-DDB1 (Q96SW2 whole entry): as the sequence (Q96SW2 whole entry) above
Chain of CRBN-DDB1 (Q16531 whole entry partner): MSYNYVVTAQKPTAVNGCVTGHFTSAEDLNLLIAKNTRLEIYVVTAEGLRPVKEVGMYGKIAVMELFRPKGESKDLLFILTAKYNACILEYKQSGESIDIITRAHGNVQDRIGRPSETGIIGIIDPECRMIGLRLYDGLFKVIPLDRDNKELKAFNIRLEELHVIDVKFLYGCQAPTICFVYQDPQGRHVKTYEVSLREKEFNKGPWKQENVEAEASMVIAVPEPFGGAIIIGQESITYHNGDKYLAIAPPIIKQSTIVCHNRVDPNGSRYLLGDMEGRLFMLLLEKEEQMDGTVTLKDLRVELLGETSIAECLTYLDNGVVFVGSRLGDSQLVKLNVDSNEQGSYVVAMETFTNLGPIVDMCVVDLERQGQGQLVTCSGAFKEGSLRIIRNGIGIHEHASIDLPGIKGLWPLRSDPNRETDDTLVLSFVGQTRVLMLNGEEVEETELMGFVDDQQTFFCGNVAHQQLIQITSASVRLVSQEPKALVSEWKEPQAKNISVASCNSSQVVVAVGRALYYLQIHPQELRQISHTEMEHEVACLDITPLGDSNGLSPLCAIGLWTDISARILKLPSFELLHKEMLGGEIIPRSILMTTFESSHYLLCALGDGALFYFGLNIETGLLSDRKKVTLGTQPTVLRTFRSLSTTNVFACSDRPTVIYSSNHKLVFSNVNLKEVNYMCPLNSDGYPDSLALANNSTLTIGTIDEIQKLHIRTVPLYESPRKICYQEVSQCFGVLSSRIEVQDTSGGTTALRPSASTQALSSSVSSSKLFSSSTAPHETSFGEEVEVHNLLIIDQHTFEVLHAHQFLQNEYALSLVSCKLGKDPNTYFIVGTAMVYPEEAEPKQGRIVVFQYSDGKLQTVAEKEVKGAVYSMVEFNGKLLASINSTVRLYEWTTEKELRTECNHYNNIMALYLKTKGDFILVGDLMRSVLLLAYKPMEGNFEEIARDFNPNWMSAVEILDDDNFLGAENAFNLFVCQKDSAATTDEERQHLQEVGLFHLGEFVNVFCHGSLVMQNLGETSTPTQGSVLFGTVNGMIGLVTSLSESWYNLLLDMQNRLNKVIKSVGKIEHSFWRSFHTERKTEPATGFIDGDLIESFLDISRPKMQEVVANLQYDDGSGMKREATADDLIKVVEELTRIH

For `CC1(NC(=O)OC2CN(c3cc(F)c(C4CCC(=O)NC4=O)c(F)c3)C2)CCCCC1` (stereo not shown) [Compound 135, 1-(4-(2,6-dioxopiperidin-3-yl)-3,5-difluorophenyl)azetidin-3-yl (1-methylcyclohexyl)carbamate], in experiment [1], the IC50 is at most 100 nM. For the same compound, the DC50 in experiment [2] is at most 30 nM.
For `O=C1CCC(c2c(F)cc(N3CC(OC(=O)NC4Cc5ccccc5C4)C3)cc2F)C(=O)N1` (stereo not shown) [Compound 136, 1-(4-(2,6-dioxopiperidin-3-yl)-3,5-difluorophenyl)azetidin-3-yl (2,3-dihydro-1H-inden-2-yl)carbamate] the same measures were at most 100 nM and at most 30 nM.
On to `O=C1CCC(c2c(F)cc(N3CC(OC(=O)NCc4ccccc4)C3)cc2F)C(=O)N1` (stereo not shown) [Compound 137, 1-(4-(2,6-dioxopiperidin-3-yl)-3,5-difluorophenyl)azetidin-3-yl benzylcarbamate], for which the IC50 in experiment [1] is at most 100 nM. In addition, the DC50 in experiment [2] is 30 to 300 nM.
For the compound `O=C1CCC(c2c(F)cc(N3CC(OC(=O)NC4CC5(CCC5)C4)C3)cc2F)C(=O)N1` (stereo not shown) [Compound 138, 1-(4-(2,6-dioxopiperidin-3-yl)-3,5-difluorophenyl)azetidin-3-yl spiro[3.3]heptan-2-ylcarbamate], the IC50 in experiment [1] is at most 100 nM. Moreover, the DC50 in experiment [2] is at most 30 nM.
`O=C1CCC(c2c(F)cc(N3CC(OC(=O)NCC4CCCC4)C3)cc2F)C(=O)N1` (stereo not shown) [Compound 139, 1-(4-(2,6-dioxopiperidin-3-yl)-3,5-difluorophenyl)azetidin-3-yl (cyclopentylmethyl)carbamate]: the IC50 in experiment [1] was at most 100 nM. In addition, the DC50 in experiment [2] is at most 30 nM.
As for `O=C1CCC(c2c(F)cc(N3CC(OC(=O)N[C@@H]4CC5CCC4C5)C3)cc2F)C(=O)N1` (stereo partly drawn) [Compound 140, 1-(4-(2,6-dioxopiperidin-3-yl)-3,5-difluorophenyl)azetidin-3-yl(2R)-bicyclo[2.2.1]heptan-2-ylcarbamate], in experiment [1], the IC50 is at most 100 nM. Further, the DC50 in experiment [2] was 30 to 300 nM.
Consider `O=C1CCC(c2c(F)cc(N3CC(OC(=O)NCC4COC4)C3)cc2F)C(=O)N1` (stereo not shown) [Compound 141, 1-(4-(2,6-dioxopiperidin-3-yl)-3,5-difluorophenyl) azetidin-3-yl (oxetan-3-ylmethyl)carbamate], for which, in experiment [1], the IC50 is at most 100 nM. For the same compound, the DC50 in experiment [2] is over 300 nM.
For `O=C1CCC(c2c(F)cc(N3CC(OC(=O)N4CCC(F)(F)CC4)C3)cc2F)C(=O)N1` (stereo not shown) [Compound 142, 1-(4-(2,6-dioxopiperidin-3-yl)-3,5-difluorophenyl)azetidin-3-yl 4,4-difluoropiperidine-1-carboxylate] the same measures were 100 to 1000 nM and over 300 nM.
For the compound `O=C1CCC(c2c(F)cc(N3CC(OC(=O)N4CCCCC4)C3)cc2F)C(=O)N1` (stereo not shown) [Compound 143, 1-(4-(2,6-dioxopiperidin-3-yl)-3,5-difluorophenyl)azetidin-3-yl piperidine-1-carboxylate], the IC50 in experiment [1] was 100 to 1000 nM. In addition, the DC50 in experiment [2] is over 300 nM.
`O=C1CCC(c2c(F)cc(N3CC(OC(=O)N4CCCC4)C3)cc2F)C(=O)N1` (stereo not shown) [Compound 144, 1-(4-(2,6-dioxopiperidin-3-yl)-3,5-difluorophenyl)azetidin-3-yl pyrrolidine-1-carboxylate]: the IC50 in experiment [1] lay within 100 to 1000 nM. Moreover, the DC50 in experiment [2] is over 300 nM.
Take `Cc1ccc(N(C)C(=O)OC2CN(c3cc(F)c(C4CCC(=O)NC4=O)c(F)c3)C2)cc1Cl` (stereo not shown) [Compound 145, 1-(4-(2,6-dioxopiperidin-3-yl)-3,5-difluorophenyl)azetidin-3-yl(3-chloro-4-methylphenyl)(methyl) carbamate]: the IC50 in experiment [1] is at most 100 nM. For the same compound, the DC50 in experiment [2] lay within 30 to 300 nM.
